Source: ChEMBL document CHEMBL1141835, “Sclerotigenin: A new antiinsectan benzodiazepine from the sclerotia of penicillium sclerotigenum” (1999)

Test system: Helicoverpa zea
Test: Insecticidal activity against first instar larvae of Helicoverpa zea at 200 ppm administered with diet relative to control
Format: functional

## O=C1NCc2nc3ccccc3c(=O)n2-c2ccccc21 [SCLEROTIGENIN]
  Activity: 42%
